From patent publication US20250213546A1, “TREATING CANCER WITH SMALL MOLECULES THAT INHIBIT ACSS-2” (DREXEL UNIVERSITY, priority 2022, published 2025)
Where two headings read alike, the source gives them in different places.

How the values were obtained:
hACSS-2 = hACSS-2 (Homo sapiens (Human), UniProt Q9NR19); experiment: Surface plasmon resonance (SPR) binding to immobilized hACSS-2; conditions: for koff / kon: 1:1 binding model
Method: SPR characterization. All binding assays were performed on a ProteOn XPR36 SPR Protein Interaction Array System (Bio-Rad Laboratories, Hercules, CA, USA). The instrument temperature was set at 25° C. for all kinetic analyses. ProteOn GLH sensor chips were preconditioned with two short pulses each (10 s) of 50 mM NaOH, 100 mM HCl, and 0.5% sodium dodecyl […]. Then the system was equilibrated with running buffer (1×PBS pH 7.4, 3% DMSO and 0.005% polysorbate 20). The surface of a GLH sensor chip was activated with a 1:100 dilution of a 1:1 mixture of 1-ethyl-3-(3-dimethylaminopropyl) carbodiimide hydrochloride (0.2 M) and sulfo-N-hydroxysuccinimide (0.05 M). […] Then, after unreacted protein had been washed out, excess active ester groups on the sensor surface were capped by a 5 min injection of 1M ethanolamine HCl (pH 8.0) at a flow rate of 5 μL/min. A reference surface was similarly created by immobilizing a nonspecific protein (IgG b12 anti-HIV-1 gp120; was obtained through the NIH AIDS Reagent Program, Division of AIDS, NIAID, NIH: Anti-HIV-1 gp120 Monoclonal (IgG1 b12) from Dr. Dennis Burton and Carlos Barbas) and was used as a background to correct nonspecific binding. Serial dilutions of hACSS-2 inhibitors were then prepared in the running buffer and injected at a flow rate of 100 μL/min, for a 50 s association phase, followed by up to a 5 min dissociation phase using the “one-shot kinetics” capability of the ProteOn instrument. Data were analyzed using the ProteOn Manager Software version 3.0 (Bio-Rad). The responses from the reference flow cell were subtracted to account for the nonspecific binding and injection artifacts. Experimental data were fitted to a simple 1:1 binding model. Experiments were performed in triplicate to detect kinetic and equilibrium dissociation constants (KD).
Overproduction of hACSS-2 was achieved using a prokaryotic expression system. […] The bacterial expressions were then spun down, the supernatant discarded, and the pellets resuspended. After the cells were lysed via sonication, the sample was subjected to ultracentrifugation, and the clarified lysate was applied to a Talon cobalt resin affinity column (Clonetech Laboratories, Mountain View, CA). The bound protein was eluted from the column using 1×PBS pH 7.4 with 0.3 M imidazole, then dialyzed overnight into 20 mM Tris-HCl pH 8.0, concentrated to 10 mg/mL, aliquoted, and stored at −80° C.

MDA-MB-231BR cells = experiment: Clonogenicity assay; format: cell-based; conditions: after treatment
Method: Triple-negative brain trophic cells MDA-MB-231BR (Center for Cancer Research, National Cancer Institute) were cultured with 10% fetal bovine serum (FBS), 5% 10,000 Units/mL Penicillin-10,000 μg/mL Streptomycin, and 5% 200 mM L-Glutamine. […] For crystal violet staining, 5×10^4 cells were plated in to a 6-well plate and subjected to the treatments as described in the individual figures and then stained with 0.5% crystal violet prepared in a 1:1 methanol-water solution followed by dH2O washes.
To assess clonogenic survival, cells were cultured and detached in their respective growth media, then counted using a hemocytometer. 1,000 cells were plated in triplicate in 6-well plates in their respective growth media and allowed to form colonies. Cells were grown for 14 days. Upon conclusion of growth period, colonies were stained with crystal violet. Colony numbers were quantified based on number of colonies with >40 cells. For clonogenic survival based on drug exposure, 100,000 cells were plated in a 6-well plate, then 24 hours later treated with noted concentration of drug for 48 hours. After 48 hours, cells in each concentration condition were lifted, counted, and plated per the described clonogenic survival protocol and allowed to grow for noted length of time in noted growth media. […] Colony numbers were quantified based on number of colonies with >40 cells.

4T1-BR = experiment: Ex vivo BCBM mouse brain slice model, 4T1-BR; format: cell-based; conditions: bioluminescence
Method: (§1) Ex vivo brain slice model. Organotypic hippocampal cultures were prepared as described previously (PMID: 34633392). Briefly, adult mice (6-8 week) or mice after 12 days following intracranial injection were decapitated and their brains rapidly removed into ice-cold (4° C.) sucrose-aCSF composed of the following (in mM): 280 sucrose, 5 KCl, 2 MgCl2, 1 CaCl2, 20 glucose, 10 HEPES, 5 Na+-ascorbate, 3 thiourea, 2 Na+-pyruvate; pH=7.3. Brains were blocked with a sharp scalpel and sliced into 250 μm sections using a McIlwain-type tissue chopper (Vibrotome inc). Four to six slices were placed onto each 0.4 μm Millicell tissue culture insert (Millipore) in six-well plates, 1 ml of medium containing the following: Neurobasal medium A (Gibco), 2% Gem21-Neuroplex supplement (Gemini), 1% N2 supplement (Gibco), 1% glutamine (Invitrogen), 0.5% glucose, 10 U/ml penicillin, and 100 μg/ml streptomycin (Invitrogen), placed underneath each insert. One-third to one half of the media was changed every 2 d. Tumor growth was monitored via bioluminescence imaging on the IVIS 200 system (Perkin Elmer) and results analyzed using Living Image software (Caliper Life Sciences, Waltham, MA, USA). […] Tissues were incubated at 37° C., 5% CO2 for 4 hours and absorbance at 490 nm was measured with Tecan Spark Microplate reader.

MDA-MB-231-BR = experiment: Ex vivo BCBM mouse brain slice model, MDA-MB-231-BR; format: cell-based; conditions: bioluminescence
Method: as §1

FASN = FASN expression (immunoblot); format: cell-based, human; conditions: BCBM cells
Method: ACSS-2 provides Acetyl-CoA for numerous metabolic processes vital for cancer proliferation. The human fatty acid synthase (FASN) is essential for BCBM growth and survival (FIG. 13A), and hACSS-2 does regulate FASN protein expression levels BCBM cells (FIG. 13B).
ACSS2 inhibitors on levels of lipid droplet storage. Briefly, cell lysates from 1-5×10^6 cells were prepared in radioimmune precipitation assay buffer (150 mM NaCl, 1% NP40, 0.5% DOC, 50 mM Tris HCL at pH 8, 0.1% SDS, 10% glycerol, 5 mM EDTA, 20 mM NaF, and 1 mM Na3 VO4) supplemented with 1 μg/ml each of pepstatin, leupeptin, aprotinin, and 200 μg/ml PMSF. Lysates were cleared by centrifugation at 16,000×g for 15 minutes at 4° C. and analyzed by SDS-PAGE and autoradiography with chemiluminescence. Proteins were analyzed by immunoblotting using primary antibodies against Fatty Acid Synthase (FASN) (Cell Signaling) and beta-Tubulin (Cell Signaling) (FIG. 16A).

[1] = Human liver microsome stability; format: in vitro ADME; conditions: for Human Liver Microsome Stability Remaining(T = 60 min) / Human Liver Microsome Stability Remaining(NCF = 60 min): given as fraction
Method: (§2) Metabolic Stability and Plasma Stability. Test compound Working solution: 5 μL of compound stock solution (10 mM in dimethyl sulfoxide (DMSO)) were diluted with 495 μL of DMSO (Working solution concentration: 100 μM, 100% DMSO). Propantheline bromide Working solution: 5 μL of Propantheline bromide stock solution (10 mM in H2O) were diluted with 495 μL of H2O (Working solution concentration: 100 μM, 100% H2O)

Human plasma stability = format: in vitro ADME; conditions: both sexes, 37° C., up to 120 min, read-out: Human Plasma Stability T1/2
Method: as §2
Human plasma from 3 males and 3 females was obtained. Heparin was used as the anticoagulant. The pooled frozen plasma was thawed in a water bath at 37° C. prior to experiment. Plasma was centrifuged at 4000 rpm for 5 min and the clots were removed if any. Using an Apricot automation workstation, 98 μL/well of blank plasma were added to all 96-well reaction plates. (Blank, T0, T10, T30, T60 and T120). The appointed incubation time points are T0 (0 min), Tn (n=0, 10, 30, 60, 120 min). An Apricot automation workstation was used to add 2 μL/well of working solution (100 μM) to all reaction plates except Blank. (T0, T10, T30, T60 and T120). All reaction plates containing mixtures of compound and plasma were incubated at 37° C. in water bath. The reaction plates were incubated at 37° C., and timer was started. At the end of incubation, 500 μL of stop solution was added and mixed (200 ng/mL tolbutamide and 200 ng/ml labetalol in ACN) to precipitate protein. Each plate was sealed and shaken for 20 minutes. After shaking, each plate was centrifuged at 4000 rpm and 4° C. for 20 minutes. After centrifugation, an Apricot automation workstation was used to transfer 150 μL of supernatant from each reaction plate to its corresponding bioanaylsis plate. Each bioanalysis plate was sealed and shaken for 10 minutes prior to LC-MS/MS analysis. The % remaining of test compound after incubation in plasma was calculated using following equation: Remaining=100×(PAR at appointed incubation time/PAR at T0 time) where PAR is the peak area ratio of analyte versus internal standard (IS).

MDR1 = experiment: in vitro; conditions: dog, MDCK-MDR1, pH 7.4, Mean % Solution Recovery A to B
Method: MDCKI MDR1 cell permeability assessment was performed to mimic the blood brain barrier. MDR1-MDCK I cells were seeded onto […] (PET) in 96-well Corning insert systems at 2.5×10^5 cells/mL until to 4-7 days for confluent cell monolayer formation. The transport buffer in the study was HBSS with 10.0 mM HEPES at pH 7.40+0.05. Test compounds were tested at 2.00 μM bi-directionally in duplicate. […] Final DMSO concentration was adjusted to less than 1%. The plate was incubated for 1.5 hours in CO2 incubator at 37±1° C., with 5% CO2 at saturated humidity without shaking. All samples after mixed with acetonitrile containing internal standard were centrifuged at 3220×g for 10 min. For all samples, 150 μL supernatant solution was diluted with 150 μL ultra-pure water for LC-MS/MS analysis. In addition, the efflux ratio of each compound was also determined. Test and reference compounds were quantified by LC-MS/MS analysis based on the peak area ratio of analyte/IS. After transport assay, Lucifer yellow rejection assay are applied to determine the cell monolayer integrity. Buffers are removed from both apical and basolateral chambers, followed by the addition of 75 μL of 100 μM lucifer yellow in transport buffer and 250 μL transport buffer in apical and basolateral chambers, respectively. […] After 30 minutes incubation, 20 μL of lucifer yellow samples are taken from the apical sides, followed by the addition of 60 μL of Transport Buffer. And then 80 μL of lucifer yellow samples are taken from the basolateral sides.
The apparent permeability coefficient Papp (cm/s) was calculated using the equation: Papp=(dCr/dt)×Vr/(A×C0) where dCr/dt is the cumulative concentration of compound in the receiver chamber as a function of time (μM/s); Vr is the solution volume in the receiver chamber (0.075 mL on the apical side, 0.25 mL on the basolateral side); A is the surface area for the transport, i.e. 0.0804 cm^2 for the area of the monolayer; CO is the initial concentration in the donor chamber (μM). […] Percent of lucifer yellow in basolateral well is calculated using the equation: Where RFUApical and RFUBasolateral are the relative fluorescence unit values of lucifer yellow in the apical and basolateral wells, respectively; VApical and VBasolateral are the volume of apical and basolateral wells (0.075 mL and 0.25 mL), respectively. The % Lucifer Yellow should be less than 1.0.

[2] = Langmuir isotherm equilibrium fit, mean, n = 3, read-out: KD [μM] equilibrium
[3] = global fit, mean, n = 3, read-out: KD [μM] kinetic/global
[4] = read-out: Affinity (KD in μM) for hACSS-2 mean ± SD (n = 3), SPR, one site binding model isotherm, triplicate

Chain of hACSS-2 (Q9NR19 whole entry): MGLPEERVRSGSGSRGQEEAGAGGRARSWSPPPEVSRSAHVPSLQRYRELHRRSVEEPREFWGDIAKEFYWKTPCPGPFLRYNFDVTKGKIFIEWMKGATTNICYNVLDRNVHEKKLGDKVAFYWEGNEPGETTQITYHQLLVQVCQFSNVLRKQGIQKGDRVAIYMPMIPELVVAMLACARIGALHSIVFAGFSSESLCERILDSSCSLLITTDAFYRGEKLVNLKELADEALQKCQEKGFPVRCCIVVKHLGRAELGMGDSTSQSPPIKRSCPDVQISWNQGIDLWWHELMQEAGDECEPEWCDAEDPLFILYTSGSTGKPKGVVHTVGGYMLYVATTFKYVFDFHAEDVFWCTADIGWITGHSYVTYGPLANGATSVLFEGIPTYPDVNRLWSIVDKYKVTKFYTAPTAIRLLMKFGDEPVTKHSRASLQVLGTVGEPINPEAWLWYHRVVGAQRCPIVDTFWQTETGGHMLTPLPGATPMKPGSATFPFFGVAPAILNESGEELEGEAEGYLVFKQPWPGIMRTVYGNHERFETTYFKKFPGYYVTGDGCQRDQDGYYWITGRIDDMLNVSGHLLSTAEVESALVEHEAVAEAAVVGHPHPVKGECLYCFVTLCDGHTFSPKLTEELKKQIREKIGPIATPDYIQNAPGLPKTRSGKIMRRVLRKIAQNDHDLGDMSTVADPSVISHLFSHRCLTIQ

O=C(CC1CCNC1)NCCC(c1ccccc1)c1ccccc1 (centres unmarked) [AD-8972]
koff (hACSS-2; mean, n = 3): 0.401 s⁻¹
kon (hACSS-2; mean, n = 3): 2830 M⁻¹ s⁻¹
Kd (hACSS-2; [2]): 124 µM
Kd (hACSS-2; [3]): 149 µM
Kd (hACSS-2; [4]): 116 ± 82 µM

O=C(CCN1CCCC(c2ccccc2)(c2ccccc2)C1)NC1CC1 [AD-2441]
reproductive cell death (clonogenicity) (MDA-MB-231BR cells): confirmed
BCBM growth, 4T1-BR (4T1-BR): suppress BCBM growth
BCBM growth, MDA-MB-231-BR (MDA-MB-231-BR): suppress BCBM growth
FASN expression levels (FASN): downregulates FASN expression levels

NC1(C(=O)N2CCCC(c3ccccc3)(c3ccccc3)C2)CC1 [AD-6772]
Kd (hACSS-2; [4]): 80 ± 20 µM

CN1CCC(O)(C(=O)NCCc2ccccc2Oc2ccccc2)CC1 [AD-7346]
koff (hACSS-2; mean, n = 3): 0.399 s⁻¹
kon (hACSS-2; mean, n = 3): 10100 M⁻¹ s⁻¹
Kd (hACSS-2; [2]): 39.8 µM
Kd (hACSS-2; [3]): 49.4 µM
Kd (hACSS-2; [4]): 53 ± 21 µM

CN1CCN(CCC(=O)N2CCCC(c3ccccc3)(c3ccccc3)C2)CC1 [AD-0029]
Kd (hACSS-2; [4]): 356 ± 108 µM

O=C(O)Cc1ccccc1Nc1c(Cl)cccc1Cl [Diclofenac, reference compound]
Human Liver Microsome Stability Remaining(T = 60 min) [1]: 0.00044
Human Liver Microsome Stability Remaining(NCF = 60 min) [1]: 0.8763

C[C@]12CC[C@H]3[C@@H](CCC4=CC(=O)CC[C@@]43C)[C@@H]1CC[C@@H]2O [Testosterone, reference compound]
Human Liver Microsome Stability Remaining(T = 60 min) [1]: 0.06959
Human Liver Microsome Stability Remaining(NCF = 60 min) [1]: 0.8976

O=S(=O)(NCCC(c1ccccc1)c1ccco1)N1CCOCC1 (centres unmarked) [AD-4859]
Kd (hACSS-2; [4]): 52 ± 2 µM

CC(C)[N+](C)(CCOC(=O)C1c2ccccc2Oc2ccccc21)C(C)C [Propantheline Bromide, Propantheline bromide, reference compound]
half-life at 2 µM (Human plasma stability): 18.6 min

COCCc1ccc(OCC(O)CNC(C)C)cc1 (centres unmarked) [Metoprolol, reference compound]
recovery at 1.5 h, 2 μM (MDR1): 94.2%

Cc1cccn2c(CC(=O)NCCC(c3ccccc3)c3ccco3)cnc12 (centres unmarked) [AD-3766]
Human Liver Microsome Stability Remaining(T = 60 min) [1]: 0.0005
Human Liver Microsome Stability Remaining(NCF = 60 min) [1]: 0.9639
Human Liver Microsome Stability CLint(liver) ([1]; human liver microsomes, scaled to liver): 1364.4891 mL/min/kg
half-life at 2 µM (Human plasma stability): > 289 min
koff (hACSS-2; mean, n = 3): 0.359 s⁻¹
kon (hACSS-2; mean, n = 3): 5010 M⁻¹ s⁻¹
Kd (hACSS-2; [2]): 70.6 µM
Kd (hACSS-2; [3]): 77.6 µM
Kd (hACSS-2; [4]): 67 ± 13 µM
